Assays:
Experiment in all cases: cells
Set-up in all cases: Oncolines panel cell viability, ATPlite 1Step luminescence, duplicate 9-point dose response, IC50
[1] = tested on: A-427; details: Homo sapiens, A-427; 72 h viability; read-out: SJ3149
Protocol: (§1) Cell viability assays were performed as previously described. In brief, cells were seeded in a 384-well plate at an optimized density. The starting cell number was determined after 24 h incubation by adding ATPlite 1Step (Perkin Elmer, Groningen, the Netherlands) to each well and recording luminescence on an Envision multimode reader (Perkin Elmer, Waltham, MA). After the addition of a duplicate 9-point dilution series of SJ3149, cells were incubated for another 72 h, followed by cell counting using ATPlite 1Step. The dilution series ranged from 3.2 to 31,600 nM or was diluted 100-fold for the most sensitive cell lines to ideally capture the complete dose–response curve. Percentage viability was determined at each compound concentration by relating the observed signal to a vehicle-treated control, that is, medium containing 0.4% (v/v) DMSO. Compound IC50 values were calculated by fitting a 4-parameter logistic curve to the percentage viability values using IDBS XLfit5 (IDBS, Guildford, UK). The IC50 was limited to the maximum tested compound concentration when the IC50 exceeded the maximum tested concentration. […] To evaluate the compound’s effect and potential therapeutic application across a diverse range of human cancers, we profiled SJ3149 in Oncolines® panel consisting of 115 human cancer cell lines, of which 86 were solid tumor and 29 hematologic cell lines, including MOLM-13. Effect on cell viability was monitored using ATPLite™ (Perkin Elmer), which measures intracellular ATP content as an indirect readout of cell number, like CellTiter Glo.

[2] = tested on: A388; details: 72 h viability; read-out: SJ3149
Protocol: as §1

[3] = tested on: CAL 27; details: Homo sapiens, CAL-27; 72 h viability; read-out: SJ3149
Protocol: as §1

[4] = tested on: COLO 205; details: Homo sapiens, COLO 205; 72 h viability; read-out: SJ3149
Protocol: as §1

[5] = tested on: HCT 116; details: Homo sapiens, HCT-116; 72 h viability; read-out: SJ3149
Protocol: as §1

[6] = tested on: HCT-15; details: Homo sapiens, HCT-15; 72 h viability; read-out: SJ3149
Protocol: as §1

[7] = tested on: HL-60; details: Homo sapiens, HL-60; 72 h viability; read-out: SJ3149
Protocol: as §1

[8] = tested on: MIA PaCa-2; details: Homo sapiens, MIA PaCa-2; 72 h viability; read-out: SJ3149
Protocol: as §1

[9] = tested on: NB4; details: Homo sapiens, NB-4; 72 h viability; read-out: SJ3149
Protocol: as §1

[10] = tested on: NCI-H82; details: Homo sapiens, NCI-H82; 72 h viability; read-out: SJ3149
Protocol: as §1

[11] = tested on: OVCAR-3; details: Homo sapiens, OVCAR-3; 72 h viability; read-out: SJ3149
Protocol: as §1

[12] = tested on: PC-3; details: Homo sapiens, PC-3; 72 h viability; read-out: SJ3149
Protocol: as §1

[13] = tested on: RPMI-7951; details: Homo sapiens, RPMI-7951; 72 h viability; read-out: SJ3149
Protocol: as §1

[14] = tested on: SJCRH30; details: 72 h viability; read-out: SJ3149
Protocol: as §1

[15] = tested on: SNU-5; details: Homo sapiens, SNU-5; 72 h viability; read-out: SJ3149
Protocol: as §1

[16] = tested on: SUP-T1; details: Homo sapiens, SUP-T1; 72 h viability; read-out: SJ3149
Protocol: as §1

[17] = tested on: SW620; details: Homo sapiens, SW-620; 72 h viability; read-out: SJ3149
Protocol: as §1

[18] = tested on: SW872; details: Homo sapiens, SW872; 72 h viability; read-out: SJ3149
Protocol: as §1

[19] = tested on: SW948; details: Homo sapiens, SW948; 72 h viability; read-out: SJ3149
Protocol: as §1

[20] = tested on: THP-1; details: Homo sapiens, THP-1; 72 h viability; read-out: SJ3149
Protocol: as §1

Measured: IC50

O=C1CCC(N2Cc3cc(Nc4noc5ccccc45)ccc3C2=O)C(=O)N1 (centres unmarked) [SJ3149]
> 31.6 µM: all assays above
